Assays:
[1] = target: T1, Receptor-interacting serine/threonine-protein kinase 1 (Homo sapiens) (UniProt Q13546); experiment: Selectivity interaction (KinomeScan (DiscoverX)) EUB0000655a RIPK1; conditions: at 10 µM
T1 sequence (whole entry): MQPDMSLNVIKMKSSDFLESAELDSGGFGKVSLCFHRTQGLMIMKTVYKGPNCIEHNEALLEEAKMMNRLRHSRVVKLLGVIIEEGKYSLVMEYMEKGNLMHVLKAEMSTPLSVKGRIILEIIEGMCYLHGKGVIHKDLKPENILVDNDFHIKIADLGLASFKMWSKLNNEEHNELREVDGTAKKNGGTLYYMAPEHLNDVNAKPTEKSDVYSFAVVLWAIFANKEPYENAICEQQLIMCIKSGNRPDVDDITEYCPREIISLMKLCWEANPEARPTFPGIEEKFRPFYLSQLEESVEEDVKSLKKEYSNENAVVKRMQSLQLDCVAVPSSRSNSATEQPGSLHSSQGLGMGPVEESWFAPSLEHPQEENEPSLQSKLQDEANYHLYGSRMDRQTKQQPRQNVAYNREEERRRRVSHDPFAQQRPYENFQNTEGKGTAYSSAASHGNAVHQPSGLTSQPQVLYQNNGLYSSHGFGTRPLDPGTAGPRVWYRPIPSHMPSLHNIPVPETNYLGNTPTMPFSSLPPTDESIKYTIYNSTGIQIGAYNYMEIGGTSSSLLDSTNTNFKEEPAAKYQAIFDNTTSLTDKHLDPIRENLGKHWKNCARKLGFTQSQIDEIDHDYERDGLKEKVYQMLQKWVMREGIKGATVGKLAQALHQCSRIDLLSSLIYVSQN

[2] = target: Mitogen-activated protein kinase 6 (Homo sapiens) (UniProt Q16659); experiment: Selectivity interaction (ActivX KiNativ screen (kinase selectivity in THP-1 cell lysates)) EUB0000639a MAPK6; assay type: subcellular; conditions: lysate
[3] = target: Dual specificity protein kinase CLK1 (Homo sapiens, UniProt P49759); experiment: Selectivity interaction (SelectScreen profiling (Invitrogen)) EUB0000607a CLK1; conditions: at 2 µM
[4] = target: Serine/threonine-protein kinase tousled-like 2 (Homo sapiens) (UniProt Q86UE8); experiment: Selectivity interaction (KinomeScan (DiscoverX)) EUB0001049a TLK2; conditions: at 1 µM
[5] = target: Tyrosine-protein kinase FRK (Homo sapiens) (UniProt P42685); experiment: Selectivity interaction (KinomeScan (DiscoverX)) EUB0000695a FRK; conditions: at 100 nM
[6] = target: T2, Tyrosine-protein kinase ZAP-70 (Homo sapiens) (UniProt P43403); experiment: Selectivity interaction (KinomeScan (DiscoverX)) EUB0000045b ZAP70; conditions: at 1 µM
T2 sequence (whole entry): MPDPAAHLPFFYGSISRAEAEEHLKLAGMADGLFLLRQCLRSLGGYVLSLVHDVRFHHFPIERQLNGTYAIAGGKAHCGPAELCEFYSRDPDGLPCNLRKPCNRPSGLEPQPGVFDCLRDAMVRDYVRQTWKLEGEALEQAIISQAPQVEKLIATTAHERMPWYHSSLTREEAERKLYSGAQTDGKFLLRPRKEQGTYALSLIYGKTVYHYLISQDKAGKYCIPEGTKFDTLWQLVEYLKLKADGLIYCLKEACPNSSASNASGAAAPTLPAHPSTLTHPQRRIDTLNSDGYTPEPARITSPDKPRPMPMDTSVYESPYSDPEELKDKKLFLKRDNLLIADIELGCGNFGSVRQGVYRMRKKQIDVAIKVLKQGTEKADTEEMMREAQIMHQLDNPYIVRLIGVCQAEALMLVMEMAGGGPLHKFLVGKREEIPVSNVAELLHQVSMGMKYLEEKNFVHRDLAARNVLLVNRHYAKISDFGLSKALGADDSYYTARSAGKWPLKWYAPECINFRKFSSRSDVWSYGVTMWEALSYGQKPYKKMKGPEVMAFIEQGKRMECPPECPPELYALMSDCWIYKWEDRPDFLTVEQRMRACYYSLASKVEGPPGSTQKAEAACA

[7] = target: T3, Tyrosine-protein kinase JAK3 (Homo sapiens) (UniProt P52333); experiment: Selectivity interaction (Ambit KINOMEscan and KiNATiv profiling in Jurkat cells) EUB0000090b JAK3; assay type: cell-based; conditions: at 1 µM
T3 sequence (whole entry): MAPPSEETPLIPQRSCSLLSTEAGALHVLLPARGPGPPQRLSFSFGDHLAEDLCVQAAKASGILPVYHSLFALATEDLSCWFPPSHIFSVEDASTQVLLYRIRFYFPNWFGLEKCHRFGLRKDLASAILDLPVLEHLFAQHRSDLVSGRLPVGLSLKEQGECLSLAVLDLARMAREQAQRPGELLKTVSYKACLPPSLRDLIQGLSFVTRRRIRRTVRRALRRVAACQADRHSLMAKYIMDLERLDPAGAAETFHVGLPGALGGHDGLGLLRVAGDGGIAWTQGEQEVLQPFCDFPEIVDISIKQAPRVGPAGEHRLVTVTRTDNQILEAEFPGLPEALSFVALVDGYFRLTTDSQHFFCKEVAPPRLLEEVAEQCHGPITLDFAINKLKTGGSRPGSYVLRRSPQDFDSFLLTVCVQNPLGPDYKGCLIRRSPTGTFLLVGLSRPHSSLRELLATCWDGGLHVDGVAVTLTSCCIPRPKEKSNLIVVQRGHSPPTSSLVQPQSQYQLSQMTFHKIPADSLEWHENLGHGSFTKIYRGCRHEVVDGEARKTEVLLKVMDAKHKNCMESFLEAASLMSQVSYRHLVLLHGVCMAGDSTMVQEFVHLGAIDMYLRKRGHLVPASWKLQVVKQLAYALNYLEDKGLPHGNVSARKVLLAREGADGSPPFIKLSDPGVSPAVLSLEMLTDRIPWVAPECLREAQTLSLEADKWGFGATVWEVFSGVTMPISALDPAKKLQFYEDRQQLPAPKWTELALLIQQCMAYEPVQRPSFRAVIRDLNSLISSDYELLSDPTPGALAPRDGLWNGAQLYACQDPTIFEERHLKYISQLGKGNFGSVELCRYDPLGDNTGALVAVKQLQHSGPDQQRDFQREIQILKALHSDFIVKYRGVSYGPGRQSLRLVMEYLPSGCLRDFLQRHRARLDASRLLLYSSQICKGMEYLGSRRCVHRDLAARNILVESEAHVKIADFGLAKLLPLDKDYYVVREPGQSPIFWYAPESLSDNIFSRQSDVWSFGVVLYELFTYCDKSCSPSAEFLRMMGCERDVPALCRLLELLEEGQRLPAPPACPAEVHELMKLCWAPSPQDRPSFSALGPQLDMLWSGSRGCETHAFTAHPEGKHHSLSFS

Chain of Mitogen-activated protein kinase 6 (Homo sapiens) (Q16659 whole entry): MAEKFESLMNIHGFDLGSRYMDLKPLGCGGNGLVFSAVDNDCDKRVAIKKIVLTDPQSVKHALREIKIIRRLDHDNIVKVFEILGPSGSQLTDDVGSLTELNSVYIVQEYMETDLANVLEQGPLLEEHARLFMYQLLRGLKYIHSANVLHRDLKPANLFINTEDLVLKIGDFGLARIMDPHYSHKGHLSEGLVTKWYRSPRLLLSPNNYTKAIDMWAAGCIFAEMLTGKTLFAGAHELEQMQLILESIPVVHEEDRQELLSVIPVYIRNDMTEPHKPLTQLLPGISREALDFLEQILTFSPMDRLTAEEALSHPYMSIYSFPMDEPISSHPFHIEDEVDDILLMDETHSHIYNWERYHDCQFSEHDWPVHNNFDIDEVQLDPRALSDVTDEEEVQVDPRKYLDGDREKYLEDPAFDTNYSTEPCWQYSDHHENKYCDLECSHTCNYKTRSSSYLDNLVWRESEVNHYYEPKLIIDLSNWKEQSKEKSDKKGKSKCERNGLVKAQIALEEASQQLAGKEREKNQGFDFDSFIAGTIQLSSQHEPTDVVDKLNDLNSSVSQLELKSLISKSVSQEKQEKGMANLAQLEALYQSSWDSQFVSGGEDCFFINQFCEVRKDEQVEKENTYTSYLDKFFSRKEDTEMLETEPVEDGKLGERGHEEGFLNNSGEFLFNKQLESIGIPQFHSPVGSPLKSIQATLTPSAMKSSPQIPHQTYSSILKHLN
Chain of Dual specificity protein kinase CLK1 (P49759 whole entry, looked up): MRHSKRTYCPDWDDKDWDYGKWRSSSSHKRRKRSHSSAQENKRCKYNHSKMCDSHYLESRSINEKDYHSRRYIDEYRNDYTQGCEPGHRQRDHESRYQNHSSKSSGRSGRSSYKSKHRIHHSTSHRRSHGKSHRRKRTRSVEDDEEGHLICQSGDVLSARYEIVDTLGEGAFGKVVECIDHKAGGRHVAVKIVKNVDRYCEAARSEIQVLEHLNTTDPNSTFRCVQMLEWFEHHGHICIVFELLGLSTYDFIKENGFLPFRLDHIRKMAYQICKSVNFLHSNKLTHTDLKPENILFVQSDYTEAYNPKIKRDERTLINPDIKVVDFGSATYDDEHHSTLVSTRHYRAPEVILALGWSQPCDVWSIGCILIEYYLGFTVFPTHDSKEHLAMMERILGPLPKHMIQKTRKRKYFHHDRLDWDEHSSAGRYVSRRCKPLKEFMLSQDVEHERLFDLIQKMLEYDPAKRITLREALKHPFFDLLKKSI
Chain of Tyrosine-protein kinase FRK (Homo sapiens) (P42685 whole entry): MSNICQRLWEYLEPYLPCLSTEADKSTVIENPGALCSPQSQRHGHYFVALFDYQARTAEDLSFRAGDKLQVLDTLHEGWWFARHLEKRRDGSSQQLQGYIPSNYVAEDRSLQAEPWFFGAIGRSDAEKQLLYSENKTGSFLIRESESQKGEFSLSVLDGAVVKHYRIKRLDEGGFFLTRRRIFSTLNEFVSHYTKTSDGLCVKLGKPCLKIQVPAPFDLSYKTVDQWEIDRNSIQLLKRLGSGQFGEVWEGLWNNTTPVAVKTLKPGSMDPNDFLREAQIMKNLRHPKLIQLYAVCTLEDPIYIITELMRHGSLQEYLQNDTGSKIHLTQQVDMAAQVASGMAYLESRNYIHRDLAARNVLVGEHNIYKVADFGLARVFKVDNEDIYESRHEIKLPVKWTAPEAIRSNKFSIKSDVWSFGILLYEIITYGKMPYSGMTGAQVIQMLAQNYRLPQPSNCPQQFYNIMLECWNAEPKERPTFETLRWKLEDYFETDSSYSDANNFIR
Chain of Serine/threonine-protein kinase tousled-like 2 (Homo sapiens) (Q86UE8 whole entry, looked up): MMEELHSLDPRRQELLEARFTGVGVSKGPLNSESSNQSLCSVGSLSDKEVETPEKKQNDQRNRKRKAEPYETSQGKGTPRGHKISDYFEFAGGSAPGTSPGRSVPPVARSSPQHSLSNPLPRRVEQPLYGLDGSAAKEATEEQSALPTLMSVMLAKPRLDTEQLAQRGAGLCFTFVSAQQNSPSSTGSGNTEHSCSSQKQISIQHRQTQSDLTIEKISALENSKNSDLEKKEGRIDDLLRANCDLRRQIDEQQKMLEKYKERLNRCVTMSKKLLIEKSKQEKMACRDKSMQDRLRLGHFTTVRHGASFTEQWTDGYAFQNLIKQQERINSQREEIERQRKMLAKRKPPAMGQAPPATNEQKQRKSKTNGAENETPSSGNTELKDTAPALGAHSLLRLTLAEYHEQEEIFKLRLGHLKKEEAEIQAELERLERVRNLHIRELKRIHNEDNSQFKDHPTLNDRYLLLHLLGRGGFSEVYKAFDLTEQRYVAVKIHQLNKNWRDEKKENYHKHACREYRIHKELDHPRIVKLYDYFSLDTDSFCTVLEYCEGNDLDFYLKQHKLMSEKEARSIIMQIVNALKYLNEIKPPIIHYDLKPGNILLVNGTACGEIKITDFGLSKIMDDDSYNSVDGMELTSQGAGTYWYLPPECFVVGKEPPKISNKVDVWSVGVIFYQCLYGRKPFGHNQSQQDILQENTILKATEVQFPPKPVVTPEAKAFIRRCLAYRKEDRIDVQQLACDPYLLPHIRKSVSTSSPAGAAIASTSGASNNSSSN

Compound: CN(C)CCOc1ccc(-c2nc(-c3ccncc3)c(-c3ccc4c(c3)CC/C4=N\O)[nH]2)cc1
- % of control [1]: 72%

Compound: CC[C@@H]1[C@H](F)C(=O)N[C@@H]1COc1nccc2cc(C(N)=O)c(OC)cc12 [ZIMLOVISERTIB]
- % of inhibition ([2]; at 0.01 µM): -20%
- % of inhibition ([2]; at 0.04 µM): -5.5%
- % of inhibition ([2]; at 0.2 µM): -11.8%
- % of inhibition ([2]; at 1 µM): -1.3%
- % of inhibition ([2]; at 5 µM): -1%

Compound: CNC(=O)Nc1ccc(-c2nc(N3CC4CCC(C3)O4)c3cnn(C4CCC5(CC4)OCCO5)c3n2)cc1
- % of inhibition [3]: -3%

Compound: COc1cc(Nc2nc(C)cc(-c3cnn4nc(OC)ccc34)n2)cc(C(F)(F)F)c1
- % of control [4]: 98%

Compound: Cc1cc(F)c(C(=O)Nc2cccc(-c3nncn3C(C)C)n2)cc1-n1cnc(C2CC2)c1
- % of control [5]: 100%

Compound: C=CC(=O)Nc1cc(-n2c(=O)ccc3cnc4ccc(-c5ccc(NS(C)(=O)=O)cc5)cc4c32)ccc1C
- % of control [6]: 91%

Compound: CN(C)C/C=C/C(=O)Nc1ccc(C(=O)N2CCCC(Nc3ncc(Cl)c(-c4c[nH]c5ccccc45)n3)C2)cc1 (stereo unspecified)
- % of control [7]: 100%
